Source: US8173635B2, “Kinase inhibitors” (Vertex Pharmaceuticals Incorporated, priority 2007, dated 2012)
Read-outs that look alike come from different tables or passages of the source.

Assays:
Type in all cases: biochemical
[1] = molecular target: PKC theta kinase (Homo sapiens, UniProt Q04759); assay: PKC theta kinase inhibition, coupled-enzyme NADH absorbance assay (Ki)
Summary of the method: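 Enzyme and compound equilibrated 10 min at 30 °C before reaction in HEPES pH 7.5 buffer with MgCl2, NaCl, EDTA and Brij. Activity tracked as NADH loss at 340 nm through a coupled system. Initial-rate data fitted by non-linear regression to give Ki.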

[2] = molecular target: PKC alpha kinase (Homo sapiens, UniProt P17252); assay: PKC alpha kinase inhibition, coupled-enzyme NADH absorbance assay (Ki)
[3] = molecular target: PKC delta kinase (Homo sapiens, UniProt Q05655); assay: PKC delta kinase inhibition, coupled-enzyme NADH absorbance assay (Ki)
Sequence of PKC delta kinase (Q05655 whole entry): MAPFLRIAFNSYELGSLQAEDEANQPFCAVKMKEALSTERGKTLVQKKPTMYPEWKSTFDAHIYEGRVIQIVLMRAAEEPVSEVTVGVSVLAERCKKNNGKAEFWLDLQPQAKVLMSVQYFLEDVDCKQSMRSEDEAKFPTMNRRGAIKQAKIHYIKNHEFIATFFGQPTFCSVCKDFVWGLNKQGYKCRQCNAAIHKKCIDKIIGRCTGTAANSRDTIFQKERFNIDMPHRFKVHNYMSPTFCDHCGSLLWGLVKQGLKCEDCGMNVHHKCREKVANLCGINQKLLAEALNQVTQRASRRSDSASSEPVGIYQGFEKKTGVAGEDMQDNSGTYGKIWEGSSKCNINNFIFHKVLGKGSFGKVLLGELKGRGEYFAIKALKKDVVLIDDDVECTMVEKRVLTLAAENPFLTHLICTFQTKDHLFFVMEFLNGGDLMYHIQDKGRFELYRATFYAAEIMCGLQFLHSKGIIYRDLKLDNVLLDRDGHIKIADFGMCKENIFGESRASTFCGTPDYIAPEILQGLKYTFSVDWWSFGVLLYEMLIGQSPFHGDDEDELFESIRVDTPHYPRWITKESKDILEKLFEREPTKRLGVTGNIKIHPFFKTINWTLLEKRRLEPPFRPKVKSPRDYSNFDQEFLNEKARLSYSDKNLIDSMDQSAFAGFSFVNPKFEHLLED
Summary of the method: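 Assay buffer was 100 mM HEPES pH 7.5, 10 mM MgCl2, 25 mM NaCl, 0.1 mM EDTA, 0.01% Brij. Enzyme buffer was equilibrated with compound in DMSO for 10 min at 30 °C. Ki values were derived by non-linear regression of initial rate data.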

[4] = 240 μM ATP, 18 nM PKC theta, 30° C., read-out: Ki PKC theta
[5] = 130 μM ATP, 4.5 nM PKC alpha, 30° C., read-out: Ki PKC alpha
[6] = 150 μM ATP, 46 nM PKC delta, 30° C., read-out: Ki PKC delta

Sequence of PKC theta kinase (Q04759 whole entry): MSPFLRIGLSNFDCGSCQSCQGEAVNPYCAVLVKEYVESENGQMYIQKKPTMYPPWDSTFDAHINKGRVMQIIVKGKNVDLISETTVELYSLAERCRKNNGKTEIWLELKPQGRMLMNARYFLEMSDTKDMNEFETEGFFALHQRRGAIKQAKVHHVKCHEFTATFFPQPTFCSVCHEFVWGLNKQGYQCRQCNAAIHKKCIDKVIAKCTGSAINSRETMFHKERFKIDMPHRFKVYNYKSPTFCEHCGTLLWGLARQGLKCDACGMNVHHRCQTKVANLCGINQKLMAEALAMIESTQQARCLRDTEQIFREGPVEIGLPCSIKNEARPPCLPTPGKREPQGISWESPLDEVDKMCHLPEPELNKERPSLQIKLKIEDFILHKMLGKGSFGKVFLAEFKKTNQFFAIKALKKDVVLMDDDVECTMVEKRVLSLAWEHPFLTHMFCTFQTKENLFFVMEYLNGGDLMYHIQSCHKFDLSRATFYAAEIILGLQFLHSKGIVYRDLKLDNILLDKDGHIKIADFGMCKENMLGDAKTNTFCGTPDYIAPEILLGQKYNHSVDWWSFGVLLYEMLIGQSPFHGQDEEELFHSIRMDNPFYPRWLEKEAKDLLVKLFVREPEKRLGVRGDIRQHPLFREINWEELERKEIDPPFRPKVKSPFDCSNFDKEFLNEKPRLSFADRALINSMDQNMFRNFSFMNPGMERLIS

Compound	Ki [1, 4]	Ki [2, 5]	Ki [3, 6]	Ki [1]	Ki [2]	Ki [3]
Cc1cc(-c2ccnc3[nH]ncc23)cc(C2(CN)CCC2)c1 [Compound 145]	< 50 nM	< 2800 nM	< 2800 nM			
COCCC(C)(CN)c1cccc(-c2ccnc3[nH]ncc23)c1 (stereo not drawn) [Compound 146]	< 50 nM	< 2800 nM	< 500 nM			
CCCc1cc(-c2ccnc3[nH]ncc23)cc(C2(CN)CCCC2)c1 [Compound 147]	< 500 nM	> 2800 nM	> 2800 nM			
CC(CN)(CC(F)F)c1cccc(-c2ccnc3[nH]ncc23)c1 (stereo not drawn) [Compound 148]	< 50 nM	< 500 nM	< 50 nM			
CC(CN)(Cc1ccccc1)c1cccc(-c2ccnc3[nH]ncc23)c1 (stereo not drawn) [Compound 149]	< 50 nM	< 500 nM	< 500 nM			
COCC(C)(CN)c1cccc(-c2ccnc3[nH]ncc23)c1 (stereo not drawn) [Compound 150]	< 50 nM	< 2800 nM	< 500 nM			
CC[C@](C)(CN)c1cccc(-c2ccnc3[nH]ncc23)c1 [Compound 151]	< 50 nM	< 500 nM	< 50 nM			
CC[C@@](C)(CN)c1cccc(-c2ccnc3[nH]ncc23)c1 [Compound 152]	< 50 nM	< 500 nM	< 500 nM			
NCC1(c2cccc(-c3ccnc4[nH]ncc34)c2)CC1 [Compound 153]	< 50 nM	< 2800 nM	< 2800 nM			
CC(C)=CCC(C)(CN)c1cccc(-c2ccnc3[nH]ncc23)c1 (stereo not drawn) [Compound 154]	< 50 nM	< 500 nM	< 500 nM			
CC#CCC(C)(CN)c1cccc(-c2ccnc3[nH]ncc23)c1 (stereo not drawn) [Compound 155]	< 50 nM	< 500 nM	< 50 nM			
CCC(C)(CN)c1cc(CCCO)cc(-c2ccnc3[nH]ncc23)c1 (stereo not drawn) [Compound 156]	< 50 nM	< 500 nM	< 2800 nM			
NCC1(c2cccc(-c3ccnc4[nH]ncc34)c2)CCOCC1 [Compound 157]	< 50 nM	< 2800 nM	< 2800 nM			
CCC(F)c1cc(-c2ccnc3[nH]ncc23)cc(C(C)(CC)CN)c1 (stereo not drawn) [Compound 158]	< 500 nM	< 2800 nM	> 2000 nM			
CCC(C)(CN)c1cc(-c2ccnc3[nH]ncc23)cc(C(C)F)c1 (stereo not drawn) [Compound 159]	< 50 nM	< 2800 nM	< 2800 nM			
CCC(C)(CN)c1cc(CCCF)cc(-c2ccnc3[nH]ncc23)c1 (stereo not drawn) [Compound 160]	< 50 nM	< 500 nM	< 2800 nM			
CCC(C)(CN)c1cc(CCC(F)F)cc(-c2ccnc3[nH]ncc23)c1 (stereo not drawn) [Compound 161]	< 500 nM	< 2800 nM	> 2000 nM			
CCC(C)(CN)c1cc(-c2ccnc3[nH]ncc23)cc(C(F)F)c1 (stereo not drawn) [Compound 162]	< 50 nM	< 500 nM	< 500 nM			
CCC(C)(CN)c1cc(CC(F)(F)F)cc(-c2ccnc3[nH]ncc23)c1 (stereo not drawn) [Compound 163]	< 500 nM	> 1200 nM	> 2000 nM			

Compound	Ki [1, 4]	Ki [2, 5]	Ki [3, 6]	Ki [1]	Ki [2]	Ki [3]
CCC(C)(CN)c1cc(CCCOC)cc(-c2ccnc3[nH]ncc23)c1 (stereo not drawn) [Compound 164]	< 50 nM	< 500 nM	< 2800 nM			
CCC(C)(CN)c1cc(-c2ccnc3[nH]ncc23)cc(C(C)(F)F)c1 (stereo not drawn) [Compound 165]	< 50 nM	< 500 nM	< 500 nM			
CCSc1cc(-c2ccnc3[nH]ncc23)cc(C(C)(CC)CN)c1 (stereo not drawn) [Compound 166]	< 50 nM	< 500 nM	< 2800 nM			
CCC(C)(CN)c1cc(Br)cc(-c2ccnc3[nH]ncc23)c1 (stereo not drawn) [Compound 167]	< 50 nM	< 500 nM	< 500 nM			
CCC(C)(CN)c1cc(CCO)cc(-c2ccnc3[nH]ncc23)c1 (stereo not drawn) [Compound 168]	< 50 nM	< 500 nM	< 500 nM			
COCCCC(C)(CN)c1cccc(-c2ccnc3[nH]ncc23)c1 (stereo not drawn) [Compound 169]	< 50 nM	< 2800 nM	< 500 nM			
CC(CN)(Cc1cscn1)c1cccc(-c2ccnc3[nH]ncc23)c1 (stereo not drawn) [Compound 170]	< 50 nM	< 2800 nM	< 2800 nM			
CC(CN)(Cc1cccnc1)c1cccc(-c2ccnc3[nH]ncc23)c1 (stereo not drawn) [Compound 171]	< 50 nM	< 500 nM	< 500 nM			
CC(CN)(Cc1ccncc1)c1cccc(-c2ccnc3[nH]ncc23)c1 (stereo not drawn) [Compound 172]	< 50 nM	< 2800 nM	< 500 nM			
COc1cccc(CC(C)(CN)c2cccc(-c3ccnc4[nH]ncc34)c2)c1 (stereo not drawn) [Compound 173]	< 50 nM	< 500 nM	< 500 nM			
COc1ccc(CC(C)(CN)c2cccc(-c3ccnc4[nH]ncc34)c2)cc1 (stereo not drawn) [Compound 174]	< 50 nM	< 500 nM	< 500 nM			
CC(CN)(Cc1ccccn1)c1cccc(-c2ccnc3[nH]ncc23)c1 (stereo not drawn) [Compound 175]	< 500 nM	> 1200 nM	> 2000 nM			
NCCc1cc(Br)cc(-c2ccnc3[nH]ncc23)c1 [Compound 176]				< 500 nM	> 1200 nM	< 2800 nM
NCC1(c2cccc(-c3ccnc4[nH]ncc34)c2)CCCCC1 [Compound 177]	< 50 nM	< 2800 nM	< 500 nM			
C#CCC(CC)(CN)c1cccc(-c2ccnc3[nH]ncc23)c1 (stereo not drawn) [Compound 178]	< 50 nM	< 500 nM	< 500 nM			
CC(CN)(CC1CCOCC1)c1cccc(-c2ccnc3[nH]ncc23)c1 (stereo not drawn) [Compound 179]	< 50 nM	< 500 nM	< 500 nM			
CCC(C)(CN)c1cc(-c2ccnc3[nH]ncc23)cc(C(F)(F)CCC2CCCCC2)c1 (stereo not drawn) [Compound 180]	> 700 nM	> 1200 nM	> 2000 nM			
NCC1(c2cccc(-c3ccnc4[nH]ncc34)c2)CCC(F)(F)CC1 [Compound 181]	< 500 nM	< 2800 nM	< 2800 nM			
NC[C@]1(c2cccc(-c3ccnc4[nH]ncc34)c2)CC[C@@H](O)CC1 [Compound 182]	< 500 nM	> 1200 nM	< 2800 nM			

Compound	Ki [1, 4]	Ki [2, 5]	Ki [3, 6]	Ki [1]	Ki [2]	Ki [3]
NC[C@]1(c2cccc(-c3ccnc4[nH]ncc34)c2)CC[C@H](O)CC1 [Compound 183]	< 500 nM	> 1200 nM	< 2800 nM			
NCC1(c2cccc(-c3ccnc4[nH]ncc34)c2)CC=C(F)CC1 (stereo not drawn) [Compound 184]	< 50 nM	< 500 nM	< 500 nM			
CC#CC[C@](C)(CN)c1cccc(-c2ccnc3[nH]ncc23)c1 [Compound 185]	< 50 nM	< 50 nM	< 50 nM			
CC#CC[C@@](C)(CN)c1cccc(-c2ccnc3[nH]ncc23)c1 [Compound 186]	< 500 nM	< 2800 nM	< 2800 nM			
CCCc1cc(-c2ccnc3[nH]ncc23)cc(C2(CCN)CCC2)c1 [Compound 187]	< 2800 nM	> 1200 nM	> 2000 nM			
NCC1(c2cc(F)cc(-c3ccnc4[nH]ncc34)c2)CCC1 [Compound 188]	< 50 nM	< 500 nM	< 2800 nM			
NCC1(c2cc(N)cc(-c3ccnc4[nH]ncc34)c2)CCC1 [Compound 190]	< 500 nM	> 1200 nM	> 2000 nM			
FC(F)CC1(c2cccc(-c3ccnc4[nH]ncc34)c2)CNC1 [Compound 191, 4-(3-(3-(2,2-Difluoroethyl)azetidin-3-yl)phenyl)-1H-pyrazolo[3,4-b]pyridine]	< 50 nM	< 500 nM	< 500 nM			
N#CCC1(c2cccc(-c3ccnc4[nH]ncc34)c2)CNC1 [Compound 192]	< 50 nM	< 500 nM	< 500 nM			
C=CC1(c2cccc(-c3ccnc4[nH]ncc34)c2)CCNC1 (stereo not drawn) [Compound 193, 4-(3-(3-Vinylpyrrolidin-3-yl)phenyl)-1H-pyrazolo[3,4-b]pyridine]	< 500 nM	< 500 nM	< 500 nM			
CCC1(c2cccc(-c3ccnc4[nH]ncc34)c2)CCNC1 (stereo not drawn) [Compound 194]	< 50 nM	< 500 nM	< 500 nM			
CC1(c2cccc(-c3ccnc4[nH]ncc34)c2)CCNC1 (stereo not drawn) [Compound 195]	< 50 nM	< 2800 nM	< 500 nM			
OCC1(c2cccc(-c3ccnc4[nH]ncc34)c2)CCNC1 (stereo not drawn) [Compound 196]	< 50 nM	< 2800 nM	< 2800 nM			
C/C=C\C1(c2cccc(-c3ccnc4[nH]ncc34)c2)CCNC1 (stereo not drawn) [Compound 197]	< 50 nM	< 500 nM	< 500 nM			
CC/C=C\C1(c2cccc(-c3ccnc4[nH]ncc34)c2)CCNC1 (stereo not drawn) [Compound 198]	< 50 nM	< 500 nM	< 500 nM			
CC(C)=CC1(c2cccc(-c3ccnc4[nH]ncc34)c2)CCNC1 (stereo not drawn) [Compound 199]	< 50 nM	< 500 nM	< 500 nM			
N#CCC1(c2cccc(-c3ccnc4[nH]ncc34)c2)CCNC1 (stereo not drawn) [Compound 200]	< 50 nM	< 500 nM	< 500 nM			
FC(F)C1(c2cccc(-c3ccnc4[nH]ncc34)c2)CCNC1 (stereo not drawn) [Compound 201]	< 50 nM	< 500 nM	< 500 nM			
C=C1CCc2ccc(-c3ccnc4[nH]ncc34)cc21 [Compound 202, 4-(3-Methylene-2,3-dihydro-1H-inden-5-yl)-1H-pyrazolo[3,4-b]pyridine]	> 2800 nM	> 2800 nM	> 2800 nM			
